# Experimental data: ChEMBL document CHEMBL6120986, “In silico inspired design of urea noscapine congeners as anticancer agents: Chemical synthesis and experimental evaluation using breast cancer cells and a xenograft mouse model” (Eur J Med Chem, 2025)
# How the values were obtained:
# MCF7 = assay: Antiproliferative activity against human MCF7 cells assessed as inhibition of cell proliferation incubated for 72 hrs by SRB assay; type: functional, cell-based; conditions: MCF7, 72 h
# MDA-MB-231 = assay: Antiproliferative activity against human MDA-MB-231 cells assessed as inhibition of cell proliferation incubated for 72 hrs by SRB assay; type: functional, cell-based; conditions: MDA-MB-231, 72 h
# [1] = Cytotoxicty against HEK cells incubated for 72 hrs by SRB assay; type: toxicity, cell-based; conditions: human
Compound,IC50 (MCF7),IC50 (MDA-MB-231),IC50 at 72 h [1]
CCc1ccc(NC(=O)Nc2c3c(c(OC)c4c2OCO4)[C@H]([C@H]2OC(=O)c4c2ccc(OC)c4OC)N(C)CC3)cc1,38.2 µM,45.7 µM,290 µM
COc1ccc2c(c1OC)C(=O)O[C@@H]2[C@H]1c2c(c(NC(=O)Nc3cccc(F)c3)c3c(c2OC)OCO3)CCN1C,37.9 µM,48.5 µM,292 µM
COc1ccc2c(c1OC)C(=O)O[C@@H]2[C@H]1c2c(c(NC(=O)Nc3c(Cl)cc(Cl)cc3Cl)c3c(c2OC)OCO3)CCN1C,27.7 µM,35.7 µM,293 µM
COc1ccc2c(c1OC)C(=O)O[C@@H]2[C@H]1c2c(cc3c(c2OC)OCO3)CCN1C [NOSCAPINE],39.7 µM,54 µM,229 µM
